{
  "source": "patent US20250387354A1",
  "about": "(SpringWorks Therapeutics, Inc., priority 2024, published 2025)",
  "tested_on": "NF1-associated plexiform neurofibromas (PNs)",
  "experiment": "Phase 2b trial of mirdametinib: confirmed objective response by BICR volumetric MRI per REiNS criteria",
  "type": "in vivo, human",
  "procedure": "Study treatment was administered orally at a twice daily (BID) dose specified in the table below. Dosing was on a 28-day Cycle (4-week course) with a 3 week on/1 week off schedule. The treatment period will last for up to 24 Cycles followed by a 30-day Safety Follow-Up period.\nA partial response was defined as PN decrease ≥20% compared to baseline using centrally read MRI volumetric analysis.\nThe major efficacy outcome measure was confirmed objective response rate (ORR), defined as the percentage of patients with complete response (disappearance of the target PN) or confirmed partial response ([…]). Responses were assessed by blinded independent central review (BICR) using volumetric magnetic resonance imaging (MRI) analysis per Response Evaluation in Neurofibromatosis and Schwannomatosis (REINS) criteria. A secondary efficacy objective was to determine the duration of response for patients who achieved a confirmed objective response.",
  "data": [
    {"smiles": "O=C(NOC[C@H](O)CO)c1ccc(F)c(F)c1Nc1ccc(I)cc1F", "note": "(single isomer, unassigned) [mirdametinib]", "values": [
      {"measurement": "ORR also considering confirmed objective responses after cycle 24", "setting": "adults", "result": 45, "unit": "%"},
      {"measurement": "ORR also considering confirmed objective responses after cycle 24", "setting": "pediatric patients", "result": 54, "unit": "%"}
    ]}
  ]
}
